pIC50: −log10 of the molar value. Activity calls are given as the source filed them. No cut-off for these calls is given here.
Key:
[1] = target: T1, Protein deacetylase HDAC6 (Homo sapiens) (UniProt Q9UBN7); experiment: Inhibition of HDAC6 in human MCF7 cells assessed as increase in alpha tubulin acetylation at 10 uM measured after 8 hrs by Western blot analysis; type: cell-based
T1 sequence (whole entry): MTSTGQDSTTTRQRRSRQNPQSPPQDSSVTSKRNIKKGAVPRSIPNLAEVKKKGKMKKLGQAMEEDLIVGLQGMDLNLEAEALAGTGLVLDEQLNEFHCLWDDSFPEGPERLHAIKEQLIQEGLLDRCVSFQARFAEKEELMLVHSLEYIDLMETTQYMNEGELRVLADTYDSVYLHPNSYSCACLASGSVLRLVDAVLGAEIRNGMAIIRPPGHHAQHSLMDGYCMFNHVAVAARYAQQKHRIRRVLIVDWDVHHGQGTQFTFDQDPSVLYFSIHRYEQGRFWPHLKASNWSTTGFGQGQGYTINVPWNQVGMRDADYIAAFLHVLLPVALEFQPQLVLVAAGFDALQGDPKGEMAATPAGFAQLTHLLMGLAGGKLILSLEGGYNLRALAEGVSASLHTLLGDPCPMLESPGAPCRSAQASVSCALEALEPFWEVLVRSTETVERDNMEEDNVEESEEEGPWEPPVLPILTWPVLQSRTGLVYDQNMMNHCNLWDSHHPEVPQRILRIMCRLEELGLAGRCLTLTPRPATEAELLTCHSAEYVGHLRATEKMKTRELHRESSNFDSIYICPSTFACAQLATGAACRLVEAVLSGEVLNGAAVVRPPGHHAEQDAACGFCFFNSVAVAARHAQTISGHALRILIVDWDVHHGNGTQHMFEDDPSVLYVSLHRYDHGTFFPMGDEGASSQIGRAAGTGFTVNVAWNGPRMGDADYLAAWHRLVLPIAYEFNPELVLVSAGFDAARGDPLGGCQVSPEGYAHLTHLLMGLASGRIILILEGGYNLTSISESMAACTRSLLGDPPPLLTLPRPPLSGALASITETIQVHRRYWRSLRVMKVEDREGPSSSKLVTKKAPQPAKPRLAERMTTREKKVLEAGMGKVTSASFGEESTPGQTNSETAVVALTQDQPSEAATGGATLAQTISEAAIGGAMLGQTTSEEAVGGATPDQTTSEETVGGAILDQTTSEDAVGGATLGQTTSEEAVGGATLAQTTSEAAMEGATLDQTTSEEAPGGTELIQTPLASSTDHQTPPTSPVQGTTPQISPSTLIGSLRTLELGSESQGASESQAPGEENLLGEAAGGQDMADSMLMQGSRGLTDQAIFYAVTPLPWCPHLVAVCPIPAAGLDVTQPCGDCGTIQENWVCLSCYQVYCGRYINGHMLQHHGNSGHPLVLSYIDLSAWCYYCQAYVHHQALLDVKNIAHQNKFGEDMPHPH

[2] = target: T2, Class 1 histone deacetylase (Homo sapiens) (UniProt Q13547+O15379+Q92769+Q9BY41); experiment: Inhibition of class 1 HDAC in human MCF7 cells assessed as increase in histone H3 acetylation at 10 uM measured after 8 hrs by Western blot analysis; type: cell-based
T2 sequence (O15379 whole entry, looked up, one chain of several, the tested form may be a part): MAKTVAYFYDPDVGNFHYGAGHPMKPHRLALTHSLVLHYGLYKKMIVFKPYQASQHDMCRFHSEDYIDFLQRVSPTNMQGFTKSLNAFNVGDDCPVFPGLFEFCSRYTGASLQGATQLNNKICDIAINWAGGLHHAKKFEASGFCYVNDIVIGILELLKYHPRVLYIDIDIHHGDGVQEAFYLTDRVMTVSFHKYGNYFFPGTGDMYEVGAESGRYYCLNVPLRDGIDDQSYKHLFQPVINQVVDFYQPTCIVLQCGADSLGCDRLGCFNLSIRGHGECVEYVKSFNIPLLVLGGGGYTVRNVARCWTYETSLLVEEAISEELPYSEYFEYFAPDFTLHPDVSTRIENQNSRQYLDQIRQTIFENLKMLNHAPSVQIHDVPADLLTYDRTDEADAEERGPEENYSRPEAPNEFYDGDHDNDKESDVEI
T2 sequence (Q13547 whole entry, looked up, one chain of several, the tested form may be a part): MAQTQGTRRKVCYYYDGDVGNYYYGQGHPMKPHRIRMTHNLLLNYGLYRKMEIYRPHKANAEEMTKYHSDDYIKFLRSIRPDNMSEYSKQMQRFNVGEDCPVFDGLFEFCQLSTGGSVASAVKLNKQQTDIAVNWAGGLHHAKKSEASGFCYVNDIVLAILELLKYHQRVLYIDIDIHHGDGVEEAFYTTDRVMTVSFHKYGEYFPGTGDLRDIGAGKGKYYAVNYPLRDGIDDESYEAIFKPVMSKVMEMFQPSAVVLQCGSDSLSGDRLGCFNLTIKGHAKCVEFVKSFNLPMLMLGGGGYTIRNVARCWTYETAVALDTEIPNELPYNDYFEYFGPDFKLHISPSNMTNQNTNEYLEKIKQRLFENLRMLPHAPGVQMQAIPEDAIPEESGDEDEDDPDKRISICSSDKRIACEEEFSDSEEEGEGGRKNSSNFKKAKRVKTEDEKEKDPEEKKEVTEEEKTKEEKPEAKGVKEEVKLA
T2 sequence (Q92769 whole entry, looked up, one chain of several, the tested form may be a part): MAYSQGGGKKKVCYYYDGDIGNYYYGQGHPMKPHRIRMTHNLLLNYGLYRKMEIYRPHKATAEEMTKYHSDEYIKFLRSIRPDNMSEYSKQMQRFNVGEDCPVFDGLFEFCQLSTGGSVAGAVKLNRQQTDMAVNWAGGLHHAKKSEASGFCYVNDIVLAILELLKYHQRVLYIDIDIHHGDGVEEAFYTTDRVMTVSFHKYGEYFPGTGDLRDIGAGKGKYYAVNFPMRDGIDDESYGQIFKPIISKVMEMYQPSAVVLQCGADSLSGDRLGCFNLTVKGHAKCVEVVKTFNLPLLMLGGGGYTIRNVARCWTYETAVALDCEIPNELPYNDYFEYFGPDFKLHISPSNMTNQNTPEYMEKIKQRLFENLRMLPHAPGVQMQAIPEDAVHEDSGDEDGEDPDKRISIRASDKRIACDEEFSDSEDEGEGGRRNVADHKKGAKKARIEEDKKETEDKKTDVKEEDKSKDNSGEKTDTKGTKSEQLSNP

[3] = target: Histone deacetylase 3/Nuclear receptor corepressor 2 (HDAC3/NCoR2) (Homo sapiens, UniProt O15379); experiment: Inhibition of C-terminal His-tagged recombinant human HDAC3 (1 to 428 residues)/N-terminal GST-tagged recombinant human NCoR2 (395 to 489 residues) co-expressed in baculovirus infected Sf9 cells using Boc-Lys(acetyl)-AMC as fluorogenic substrate measured after 1 hr by flourescence plate reader method
Chain of Histone deacetylase 3/Nuclear receptor corepressor 2 (HDAC3/NCoR2) (O15379 whole entry, the tested form may be a part): as the sequence (O15379 whole entry, looked up, one chain of several, the tested form may be a part) above
Chain of Histone deacetylase 3/Nuclear receptor corepressor 2 (HDAC3/NCoR2) (Q9Y618 whole entry, further chain, the tested form may be a part): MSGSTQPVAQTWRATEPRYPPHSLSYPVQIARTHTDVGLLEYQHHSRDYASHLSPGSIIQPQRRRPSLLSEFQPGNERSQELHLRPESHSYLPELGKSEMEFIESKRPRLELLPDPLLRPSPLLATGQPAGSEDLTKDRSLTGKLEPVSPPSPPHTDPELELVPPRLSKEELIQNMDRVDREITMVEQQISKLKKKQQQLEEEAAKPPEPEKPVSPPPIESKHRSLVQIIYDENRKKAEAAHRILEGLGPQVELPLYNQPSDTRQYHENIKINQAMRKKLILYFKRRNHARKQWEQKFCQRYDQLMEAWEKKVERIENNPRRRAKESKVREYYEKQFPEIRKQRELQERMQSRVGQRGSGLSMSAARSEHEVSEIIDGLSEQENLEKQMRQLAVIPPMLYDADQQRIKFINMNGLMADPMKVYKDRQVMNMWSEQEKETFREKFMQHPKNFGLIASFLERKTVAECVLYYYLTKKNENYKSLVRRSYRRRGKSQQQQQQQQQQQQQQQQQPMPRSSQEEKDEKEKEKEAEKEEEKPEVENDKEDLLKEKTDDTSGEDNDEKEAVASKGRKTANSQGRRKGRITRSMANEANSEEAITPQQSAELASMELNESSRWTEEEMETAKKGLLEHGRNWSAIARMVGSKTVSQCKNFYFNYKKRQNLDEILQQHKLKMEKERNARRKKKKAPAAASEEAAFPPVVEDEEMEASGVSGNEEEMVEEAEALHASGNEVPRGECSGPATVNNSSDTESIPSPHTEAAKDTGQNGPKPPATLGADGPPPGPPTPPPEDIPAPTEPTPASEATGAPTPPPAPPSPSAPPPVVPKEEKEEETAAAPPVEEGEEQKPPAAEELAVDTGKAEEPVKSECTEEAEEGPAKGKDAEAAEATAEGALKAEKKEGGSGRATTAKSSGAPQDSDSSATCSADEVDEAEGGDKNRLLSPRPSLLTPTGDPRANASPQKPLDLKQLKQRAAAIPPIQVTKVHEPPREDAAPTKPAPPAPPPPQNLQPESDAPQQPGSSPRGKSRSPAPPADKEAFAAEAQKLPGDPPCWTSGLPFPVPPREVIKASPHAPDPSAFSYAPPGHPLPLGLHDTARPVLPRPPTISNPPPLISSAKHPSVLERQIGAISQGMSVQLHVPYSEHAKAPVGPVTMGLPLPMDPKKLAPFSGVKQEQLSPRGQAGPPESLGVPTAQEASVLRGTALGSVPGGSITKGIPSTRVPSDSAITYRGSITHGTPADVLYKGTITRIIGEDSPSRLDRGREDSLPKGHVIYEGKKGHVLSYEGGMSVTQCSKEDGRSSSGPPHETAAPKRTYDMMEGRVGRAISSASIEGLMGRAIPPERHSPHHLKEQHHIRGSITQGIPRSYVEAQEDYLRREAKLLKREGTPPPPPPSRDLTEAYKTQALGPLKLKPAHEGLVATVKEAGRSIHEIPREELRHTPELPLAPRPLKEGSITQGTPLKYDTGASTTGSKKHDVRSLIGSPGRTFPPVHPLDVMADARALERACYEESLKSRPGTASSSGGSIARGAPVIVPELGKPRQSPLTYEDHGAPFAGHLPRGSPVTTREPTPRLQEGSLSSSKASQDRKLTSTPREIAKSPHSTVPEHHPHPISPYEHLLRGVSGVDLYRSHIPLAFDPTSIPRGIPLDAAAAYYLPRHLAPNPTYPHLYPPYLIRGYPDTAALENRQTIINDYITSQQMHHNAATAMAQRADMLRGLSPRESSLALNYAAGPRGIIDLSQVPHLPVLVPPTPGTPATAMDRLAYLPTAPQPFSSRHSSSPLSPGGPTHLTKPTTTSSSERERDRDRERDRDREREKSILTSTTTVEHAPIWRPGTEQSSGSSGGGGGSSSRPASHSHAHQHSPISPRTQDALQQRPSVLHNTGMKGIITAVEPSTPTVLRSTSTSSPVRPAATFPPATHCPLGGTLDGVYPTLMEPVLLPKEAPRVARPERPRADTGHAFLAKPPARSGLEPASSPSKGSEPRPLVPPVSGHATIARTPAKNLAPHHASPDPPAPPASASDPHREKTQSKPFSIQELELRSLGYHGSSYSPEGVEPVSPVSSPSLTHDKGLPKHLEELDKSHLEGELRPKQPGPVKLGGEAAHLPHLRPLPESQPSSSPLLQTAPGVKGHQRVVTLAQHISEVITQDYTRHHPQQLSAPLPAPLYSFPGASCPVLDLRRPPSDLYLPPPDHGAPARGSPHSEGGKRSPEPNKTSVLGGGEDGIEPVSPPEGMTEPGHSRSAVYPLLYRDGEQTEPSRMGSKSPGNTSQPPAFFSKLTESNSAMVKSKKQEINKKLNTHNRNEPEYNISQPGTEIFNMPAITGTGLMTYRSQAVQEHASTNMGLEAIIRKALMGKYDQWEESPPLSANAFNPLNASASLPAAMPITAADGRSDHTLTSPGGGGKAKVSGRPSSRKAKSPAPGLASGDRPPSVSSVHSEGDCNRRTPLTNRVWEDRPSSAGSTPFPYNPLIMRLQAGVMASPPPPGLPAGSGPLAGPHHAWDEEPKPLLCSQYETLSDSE

[4] = target: T2, Class 1 histone deacetylase (Homo sapiens); experiment: Inhibition of class 1 HDAC in human K562 cells assessed as increase in histone H3 acetylation at 10 uM measured after 8 hrs by Western blot analysis; type: cell-based
HeLa = experiment: cells; type: functional; settings: Homo sapiens, time 48 hrs
Description: Antiproliferative activity against human HeLa cells assessed as inhibition of cell proliferation incubated for 48 hrs by CCK8 assay

Histone deacetylase 1 = Histone deacetylase 1 (Homo sapiens, UniProt Q13547); experiment: Inhibition of HDAC1 (unknown origin) using Boc-Lys(acetyl)-AMC as fluorogenic substrate measured after 1 hr by flourescence plate reader method
Chain of Histone deacetylase 1 (Q13547 whole entry): as the sequence (Q13547 whole entry, looked up, one chain of several, the tested form may be a part) above

[5] = target: T2, Class 1 histone deacetylase (Homo sapiens); experiment: Inhibition of class 1 HDAC in human K562 cells assessed as increase in histone H4 acetylation at 10 uM measured after 8 hrs by Western blot analysis; type: cell-based
A549 = experiment: cells; type: functional; settings: Homo sapiens, time 48 hrs
Description: Antiproliferative activity against human A549 cells assessed as inhibition of cell proliferation incubated for 48 hrs by CCK8 assay

[6] = target: T2, Class 1 histone deacetylase (Homo sapiens); experiment: Inhibition of class 1 HDAC in human MCF7 cells assessed as increase in histone H4 acetylation at 10 uM measured after 8 hrs by Western blot analysis; type: cell-based
K562 = experiment: cells; type: functional; settings: Homo sapiens, time 48 hrs
Description: Antiproliferative activity against human K562 cells assessed as inhibition of cell proliferation incubated for 48 hrs by CCK8 assay

MCF7 = experiment: cells; type: functional; settings: Homo sapiens, time 48 hrs
Description: Antiproliferative activity against human MCF-7 cells assessed as inhibition of cell proliferation incubated for 48 hrs by CCK8 assay

[7] = target: T1, Protein deacetylase HDAC6 (Homo sapiens); experiment: Inhibition of HDAC6 in human K562 cells assessed as increase in alpha tubulin acetylation at 10 uM measured after 8 hrs by Western blot analysis; type: cell-based
Histone deacetylase 8 = target: T3, Histone deacetylase 8 (Homo sapiens, UniProt Q9BY41); experiment: Inhibition of full length human C-terminal His-tagged HDAC8 expressed in baculovirus infected Sf9 insect cells using Boc-Lys(acetyl)-AMC as fluorogenic substrate measured after 1 hr by flourescence plate reader method
T3 sequence (Q9BY41 whole entry): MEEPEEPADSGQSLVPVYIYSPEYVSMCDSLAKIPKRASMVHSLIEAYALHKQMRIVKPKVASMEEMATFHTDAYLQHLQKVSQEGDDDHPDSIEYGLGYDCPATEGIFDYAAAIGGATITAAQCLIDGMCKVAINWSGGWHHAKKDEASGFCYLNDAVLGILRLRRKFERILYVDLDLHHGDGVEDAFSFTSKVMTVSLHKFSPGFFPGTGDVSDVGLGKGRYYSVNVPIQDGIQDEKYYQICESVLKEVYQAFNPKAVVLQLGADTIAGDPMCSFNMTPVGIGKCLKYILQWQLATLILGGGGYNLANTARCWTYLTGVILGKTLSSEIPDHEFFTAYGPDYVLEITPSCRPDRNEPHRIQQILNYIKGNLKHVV

Histone deacetylase 9 = Histone deacetylase 9 (Homo sapiens, UniProt Q9UKV0); experiment: Inhibition of human C-terminal His-tagged HDAC9 (604 to 1066 residues) expressed in baculovirus infected Sf9 insect cells using Boc-Lys(acetyl)-AMC as fluorogenic substrate measured after 1 hr by flourescence plate reader method
Chain of Histone deacetylase 9 (Q9UKV0 whole entry, the tested form may be a part): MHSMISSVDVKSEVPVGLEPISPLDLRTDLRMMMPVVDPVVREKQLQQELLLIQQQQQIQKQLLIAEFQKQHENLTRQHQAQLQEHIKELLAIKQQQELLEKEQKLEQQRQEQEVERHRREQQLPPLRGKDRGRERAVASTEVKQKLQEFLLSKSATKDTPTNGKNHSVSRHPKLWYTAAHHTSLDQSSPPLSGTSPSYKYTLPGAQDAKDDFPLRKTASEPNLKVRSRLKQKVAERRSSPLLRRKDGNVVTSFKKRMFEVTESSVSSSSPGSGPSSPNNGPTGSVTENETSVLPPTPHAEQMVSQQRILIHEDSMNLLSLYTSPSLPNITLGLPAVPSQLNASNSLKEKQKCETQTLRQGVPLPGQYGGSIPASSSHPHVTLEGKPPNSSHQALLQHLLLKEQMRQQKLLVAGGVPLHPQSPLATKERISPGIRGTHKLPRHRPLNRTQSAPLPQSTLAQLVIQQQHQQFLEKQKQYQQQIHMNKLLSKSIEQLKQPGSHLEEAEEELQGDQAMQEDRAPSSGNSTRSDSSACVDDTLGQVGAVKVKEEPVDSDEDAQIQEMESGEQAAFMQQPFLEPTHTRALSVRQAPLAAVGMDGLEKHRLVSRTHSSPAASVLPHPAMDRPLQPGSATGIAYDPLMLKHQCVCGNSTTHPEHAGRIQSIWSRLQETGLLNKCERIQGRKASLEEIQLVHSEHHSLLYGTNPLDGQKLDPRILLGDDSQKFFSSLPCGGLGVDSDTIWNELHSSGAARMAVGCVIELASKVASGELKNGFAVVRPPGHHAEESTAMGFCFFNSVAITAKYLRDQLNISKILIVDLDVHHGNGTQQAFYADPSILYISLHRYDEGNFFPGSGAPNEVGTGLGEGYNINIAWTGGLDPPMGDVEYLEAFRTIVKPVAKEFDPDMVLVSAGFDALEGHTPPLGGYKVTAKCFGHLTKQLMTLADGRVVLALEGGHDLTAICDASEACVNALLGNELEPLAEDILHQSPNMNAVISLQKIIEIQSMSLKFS

[8] = target: Histone deacetylase (Homo sapiens) (UniProt Q13547+O15379+Q9UBN7+Q92769+Q9UQL6+Q8WUI4+Q9BY41+Q96DB2+P56524+Q9UKV0+Q969S8); experiment: Inhibition of HDAC in human HeLa nuclear extract at 1 uM using Boc-Lys(acetyl)-AMC as fluorogenic substrate measured after 1 hr by flourescence plate reader method relative to control; type: subcellular; settings: Nucleus
[9] = target: T4, Protein deacetylase HDAC6 (Homo sapiens, UniProt Q9UBN7); experiment: Inhibition of HDAC6 (unknown origin) using Boc-Lys(acetyl)-AMC as fluorogenic substrate measured after 1 hr by flourescence plate reader method
T4 sequence (Q9UBN7 whole entry): T1 sequence (whole entry)

Histone deacetylase 5 = Histone deacetylase 5 (Homo sapiens, UniProt Q9UQL6); experiment: Inhibition of human HDAC5 using Boc-Lys(acetyl)-AMC as fluorogenic substrate measured after 1 hr by flourescence plate reader method

## O=C(CCCSC[C@H](NC(=O)c1ccccc1)C(=O)Nc1ccccc1)NO
[1]
  inhibition: Active
[2]
  inhibition: Active
[3]
  pIC50: 6.90
[4]
  inhibition: Active
HeLa
  GI50: 4100 nM
Histone deacetylase 1
  pIC50: 6.70
[5]
  inhibition: Active
A549
  GI50: 4700 nM
[6]
  inhibition: Active
K562
  GI50: 1400 nM
MCF7
  GI50: 3700 nM
[7]
  inhibition: Active
Histone deacetylase 8
  pIC50: < 6.70
Histone deacetylase 9
  pIC50: < 6.70
[8]
  inhibition: 80%
[9]
  pIC50: 7.86
Histone deacetylase 5
  pIC50: < 6.70

## O=C(CCCSC[C@H](NC(=O)OCc1ccccc1)C(=O)Nc1cccc2ccccc12)NO
[1]
  inhibition: Active
[2]
  inhibition: Active
[3]
  pIC50: 7.16
[4]
  inhibition: Active
HeLa
  GI50: 4300 nM
Histone deacetylase 1
  pIC50: 6.82
[5]
  inhibition: Active
A549
  GI50: 5300 nM
[6]
  inhibition: Active
K562
  GI50: 2000 nM
MCF7
  GI50: 4900 nM
[7]
  inhibition: Active
Histone deacetylase 8
  pIC50: < 6.70
Histone deacetylase 9
  pIC50: < 6.70
[8]
  inhibition: 83%
[9]
  pIC50: 7.71
Histone deacetylase 5
  pIC50: < 6.70

## O=C(CCCSC[C@H](NC(=O)OCc1ccccc1)C(=O)Nc1ccccc1)NO
[1]
  inhibition: Active
[2]
  inhibition: Active
[3]
  pIC50: 6.97
[4]
  inhibition: Active
HeLa
  GI50: 3800 nM
Histone deacetylase 1
  pIC50: 6.76
[5]
  inhibition: Active
A549
  GI50: 3500 nM
[6]
  inhibition: Active
K562
  GI50: 1700 nM
MCF7
  GI50: 4700 nM
[7]
  inhibition: Active
Histone deacetylase 8
  pIC50: < 6.70
Histone deacetylase 9
  pIC50: < 6.70
[8]
  inhibition: 84%
[9]
  pIC50: 7.69
Histone deacetylase 5
  pIC50: < 6.70

— ChEMBL document CHEMBL5055644, “Cysteine derivatives as acetyl lysine mimics to inhibit zinc-dependent histone deacetylases for treating cancer” (Eur J Med Chem, 2021)
